In paper PMC5408701, “Isomaltooligosaccharide-binding structure of Paenibacillus sp. 598K cycloisomaltooligosaccharide glucanotransferase” (Bioscience Reports, 2017):

Target: T1, PsCITase (core domain) (Paenibacillus sp. 598K, UniProt G9MBW2)
T1 construct: gene cit; core domain 41-739 (N-terminal 40 and C-terminal 235 residues, incl. CBM35-2, removed), N-terminal pET15b His tag (numbered Met21-Met40), E. coli BL21(DE3); full length 972 residues
Test: X-ray crystallography, crystal soaked with […] CI-7, […] A
Type: binding

T1 sequence (G9MBW2 entry or part of it): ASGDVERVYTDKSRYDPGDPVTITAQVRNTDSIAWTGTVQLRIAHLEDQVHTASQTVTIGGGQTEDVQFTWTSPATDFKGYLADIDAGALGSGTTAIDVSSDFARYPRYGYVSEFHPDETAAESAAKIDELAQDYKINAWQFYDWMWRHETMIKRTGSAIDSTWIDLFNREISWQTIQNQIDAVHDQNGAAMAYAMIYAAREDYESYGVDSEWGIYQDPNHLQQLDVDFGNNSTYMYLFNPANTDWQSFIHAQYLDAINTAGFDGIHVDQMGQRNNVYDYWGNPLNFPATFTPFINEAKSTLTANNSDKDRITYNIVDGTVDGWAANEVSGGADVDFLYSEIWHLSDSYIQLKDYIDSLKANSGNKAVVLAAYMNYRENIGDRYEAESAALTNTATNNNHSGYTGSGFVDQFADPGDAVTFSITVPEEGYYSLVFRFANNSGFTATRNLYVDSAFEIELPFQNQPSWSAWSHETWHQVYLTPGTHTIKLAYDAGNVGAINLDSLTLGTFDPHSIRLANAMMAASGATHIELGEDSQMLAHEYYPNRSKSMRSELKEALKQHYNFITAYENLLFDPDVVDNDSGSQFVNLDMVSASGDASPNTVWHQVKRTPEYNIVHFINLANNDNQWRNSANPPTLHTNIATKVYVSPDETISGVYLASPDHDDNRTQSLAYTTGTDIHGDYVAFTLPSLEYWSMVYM

SMILES | X-ray crystallography, crystal soaked with 5% CI-7, 2.60 A (variable loop (canonical) site of PsCBM35-1, Trp507, on crystallographic two-fold axis, averaged density, soaked CI-7 is hydrolysed at the catalytic site) | X-ray crystallography, crystal soaked with 5% CI-7, 2.60 A (catalytic cleft, subsites -7 to -1, hydrolysis product of soaked CI-7, Glc-1 density ambiguous)
O[C@@H]1[C@@H](O)[C@H]2OC[C@H]3O[C@H](OC[C@H]4O[C@H](OC[C@H]5O[C@H](OC[C@H]6O[C@H](OC[C@H]7O[C@H](OC[C@H]8O[C@H](OC[C@@H](O2)[C@H]1O)[C@H](O)[C@@H](O)[C@@H]8O)[C@H](O)[C@@H](O)[C@@H]7O)[C@H](O)[C@@H](O)[C@@H]6O)[C@H](O)[C@@H](O)[C@@H]5O)[C@H](O)[C@@H](O)[C@@H]4O)[C@H](O)[C@@H](O)[C@@H]3O [CI-7, cycloisomaltoheptaose] | The bound sugar appeared to be soaked CI-7 with the cyclic sugar chain structure | 
OC[C@H]1O[C@H](OC[C@H]2O[C@H](OC[C@H]3O[C@H](OC[C@H]4O[C@H](OC[C@H]5O[C@H](OC[C@H]6O[C@H](OC[C@H]7OC(O)[C@H](O)[C@@H](O)[C@@H]7O)[C@H](O)[C@@H](O)[C@@H]6O)[C@H](O)[C@@H](O)[C@@H]5O)[C@H](O)[C@@H](O)[C@@H]4O)[C@H](O)[C@@H](O)[C@@H]3O)[C@H](O)[C@@H](O)[C@@H]2O)[C@H](O)[C@@H](O)[C@@H]1O (some centres unmarked) [IG-7, isomaltoheptaose] |  | the bound CI-7 was observed as the cleaved linear form like isomaltoheptaose (IG-7)
